In PubChem BioAssay (NCI):
Values joined by “and” are separate entries in the source; they are usually repeats but may differ in a detail not shown here. Identical values can stand only once.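 Each compound was tested at five concentrations against cells in 96-well plates for 48 hours. GI50 marks 50% less growth. The concentration for full growth arrest is given as TGI.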

What was measured:
Test in all cases: NCI anticancer screen, dose series, 48 h
NCI/ADR-RES ovarian = tested on: NCI/ADR-RES ovarian
HL-60(TB) leukemia = tested on: HL-60(TB) leukemia
HOP-62 NSCLC = tested on: HOP-62 NSCLC
RXF 393 renal = tested on: RXF 393 renal
TK-10 renal = tested on: TK-10 renal
SNB-19 CNS = tested on: SNB-19 CNS
HT29 colon = tested on: HT29 colon
COLO 205 colon = tested on: COLO 205 colon
CAKI-1 renal = tested on: CAKI-1 renal
U251 CNS = tested on: U251 CNS

## NC(N)=NN=c1c(=O)c2ccccc2c1=O
NCI/ADR-RES ovarian
  GI50: 10.4 µM
  TGI: 31.7 µM
HL-60(TB) leukemia
  GI50: 21.5 µM
  TGI: 48.6 µM
HOP-62 NSCLC
  GI50: 9 µM
  TGI: 21 µM
RXF 393 renal
  GI50: 13.1 µM
  TGI: 25.9 µM
TK-10 renal
  GI50: 22.6 µM
  TGI: 37.4 µM
SNB-19 CNS
  GI50: 1.72 µM
  TGI: 3.25 µM
HT29 colon
  GI50: 2.81 µM
  TGI: 6.27 µM
COLO 205 colon
  GI50: 17.9 µM
  TGI: 32.4 µM
CAKI-1 renal
  GI50: 18.9 µM
  TGI: 41.2 µM
U251 CNS
  GI50: 4.36 µM
  TGI: 15.8 µM

## COc1cc2c(Oc3ccc(NC(=O)C4(C(=O)Nc5ccc(F)cc5)CC4)cc3F)ccnc2cc1OCCCN1CCOCC1
NCI/ADR-RES ovarian
  GI50: 1.98 µM
  TGI: > 10 µM
HL-60(TB) leukemia
  GI50: 0.164 µM and 0.389 µM
  TGI: 2.02 µM and 2.34 µM
HOP-62 NSCLC
  GI50: 0.798 µM and 0.573 µM
  TGI: 2.17 µM and 4.15 µM
RXF 393 renal
  GI50: 0.468 µM and 0.661 µM
  TGI: 1.77 µM and 1.9 µM
TK-10 renal
  GI50: 1.03 µM and 1.36 µM
  TGI: 2.57 µM and 4.42 µM
SNB-19 CNS
  GI50: 1.99 µM and 2.14 µM
  TGI: 5.77 µM and > 10 µM
HT29 colon
  GI50: 0.387 µM
  TGI: 1.8 µM
COLO 205 colon
  GI50: 0.281 µM and 0.308 µM
  TGI: 0.641 µM and 0.934 µM
CAKI-1 renal
  GI50: 0.547 µM and 0.768 µM
  TGI: 1.97 µM and > 4.86 µM
U251 CNS
  GI50: 1.42 µM
  TGI: 3.32 µM

## Cc1cc(=O)oc2c(C3=NN(C=O)C(c4ccccc4)C3)c(O)ccc12 (stereo not given)
NCI/ADR-RES ovarian
  TGI: > 100 µM
HL-60(TB) leukemia
  TGI: > 100 µM
HOP-62 NSCLC
  TGI: 91.4 µM
RXF 393 renal
  TGI: > 80.5 µM
TK-10 renal
  TGI: 87.9 µM
SNB-19 CNS
  TGI: > 91.2 µM
HT29 colon
  TGI: > 100 µM
COLO 205 colon
  TGI: > 81.1 µM
CAKI-1 renal
  TGI: > 94.9 µM
U251 CNS
  TGI: > 100 µM

## Cc1c2cnccc2c(C)c2c1c1cc(O)ccc1n2C(C)C
NCI/ADR-RES ovarian
  GI50: 1.14 µM
  TGI: 4.23 µM
HL-60(TB) leukemia
  GI50: 0.42 µM
  TGI: 3.13 µM
HOP-62 NSCLC
  GI50: 1.6 µM
  TGI: 4.74 µM
RXF 393 renal
  GI50: 0.935 µM
  TGI: 2.39 µM
TK-10 renal
  GI50: 3.31 µM
  TGI: 8.55 µM
SNB-19 CNS
  GI50: 1.76 µM
  TGI: 10.9 µM
HT29 colon
  GI50: 3.11 µM
  TGI: 11.5 µM
COLO 205 colon
  GI50: 2.36 µM
  TGI: 6.02 µM
CAKI-1 renal
  GI50: 0.388 µM
  TGI: 5.24 µM
U251 CNS
  GI50: 1.77 µM
  TGI: 6.51 µM

## Cc1cc(F)c(C(=O)Nc2cccc(-c3nncn3C(C)C)n2)cc1-n1cnc(C2CC2)c1
NCI/ADR-RES ovarian
  GI50: 17.7 µM
  TGI: 93.2 µM
HL-60(TB) leukemia
  GI50: 16.2 µM
  TGI: 45.3 µM
HOP-62 NSCLC
  GI50: 16.6 µM
  TGI: 58.8 µM
RXF 393 renal
  GI50: 20.6 µM
  TGI: 49.1 µM
TK-10 renal
  GI50: 8.12 µM
  TGI: 92.5 µM
SNB-19 CNS
  GI50: 25.5 µM
  TGI: > 100 µM
HT29 colon
  GI50: 18.2 µM
  TGI: > 100 µM
COLO 205 colon
  GI50: 4.2 µM
  TGI: 21.3 µM
CAKI-1 renal
  GI50: 10.5 µM
  TGI: > 100 µM
U251 CNS
  GI50: 17.1 µM
  TGI: > 100 µM

## CCN(C(=O)N1CCN(c2cc3c(cc2F)c(=O)c(C(=O)O)cn3C2CC2)CC1)c1nc(-c2ccccc2)cs1
NCI/ADR-RES ovarian
  GI50: 2.88 µM
  TGI: > 100 µM
HL-60(TB) leukemia
  GI50: 1.59 µM
  TGI: 4.35 µM
HOP-62 NSCLC
  GI50: 2.82 µM
  TGI: > 100 µM
RXF 393 renal
  GI50: 2.52 µM
  TGI: 8.88 µM
TK-10 renal
  GI50: 3.37 µM
  TGI: 53.2 µM
SNB-19 CNS
  GI50: 3.94 µM
  TGI: > 100 µM
HT29 colon
  GI50: 3.2 µM
  TGI: > 100 µM
COLO 205 colon
  GI50: 2.58 µM
  TGI: 7.1 µM
CAKI-1 renal
  GI50: 2.58 µM
  TGI: 10.3 µM
U251 CNS
  GI50: 3.25 µM
  TGI: 22.9 µM

## COc1ccccc1-n1cnc(N)c1C(=O)c1cc(OC)c(OC)c(OC)c1
NCI/ADR-RES ovarian
  GI50: 13.1 µM
  TGI: > 100 µM
HL-60(TB) leukemia
  GI50: 3.12 µM
  TGI: > 100 µM
HOP-62 NSCLC
  GI50: 37.4 µM
  TGI: > 100 µM
RXF 393 renal
  GI50: 2.19 µM
  TGI: 64.5 µM
TK-10 renal
  GI50: 5.21 µM
  TGI: > 100 µM
SNB-19 CNS
  GI50: 4 µM
  TGI: > 100 µM
HT29 colon
  GI50: 3.41 µM
  TGI: > 100 µM
COLO 205 colon
  GI50: 4.5 µM
  TGI: 40.3 µM
CAKI-1 renal
  GI50: 3.12 µM
  TGI: > 100 µM
U251 CNS
  GI50: 3.74 µM
  TGI: > 100 µM

## CC/C=C\C[C@H]1C/C=C2/C(=O)C=C[C@H]2C/C=C\CCCC(=O)O1
NCI/ADR-RES ovarian
  GI50: 1.47 µM
  TGI: > 50 µM
HL-60(TB) leukemia
  GI50: 1.74 µM
  TGI: 12 µM
HOP-62 NSCLC
  GI50: 2.09 µM
  TGI: 7.72 µM
RXF 393 renal
  GI50: 1.91 µM
  TGI: 8.01 µM
TK-10 renal
  GI50: 2.54 µM
  TGI: 8.01 µM
SNB-19 CNS
  GI50: 5.17 µM
  TGI: 11.2 µM
HT29 colon
  GI50: 1.85 µM
  TGI: 6.15 µM
COLO 205 colon
  GI50: 1.87 µM
  TGI: 6.7 µM
CAKI-1 renal
  GI50: 2.29 µM
  TGI: 8.23 µM
U251 CNS
  GI50: 1.95 µM
  TGI: 7.09 µM

## COc1ccc(-n2cc(-c3cc(OC)c(OC)c(OC)c3)nc2SCc2ccc(Cl)cc2)cc1OC
NCI/ADR-RES ovarian
  GI50: 81.6 µM
  TGI: > 100 µM
HL-60(TB) leukemia
  GI50: 78 µM
  TGI: > 100 µM
HOP-62 NSCLC
  GI50: > 100 µM
  TGI: > 100 µM
RXF 393 renal
  GI50: > 100 µM
  TGI: > 100 µM
TK-10 renal
  GI50: > 100 µM
  TGI: > 100 µM
SNB-19 CNS
  GI50: > 100 µM
  TGI: > 100 µM
HT29 colon
  GI50: > 100 µM
  TGI: > 100 µM
COLO 205 colon
  GI50: > 100 µM
  TGI: > 100 µM
CAKI-1 renal
  GI50: > 100 µM
  TGI: > 100 µM
U251 CNS
  GI50: > 100 µM
  TGI: > 100 µM
